Test results taken from patent US7094868B2, “Peptides for recognition and targeting of GLIAL cell tumors” (Auburn University, priority 2002, dated 2006).

How the values were obtained:
[1] = tested on: CTX TNA2 astrocytes; assay: Evaluation of binding selectivity: phage output/input titer on normal astrocytes; format: cell-based, rat; details: for binding selectivity, RG2 glioma versus normal astrocytes: cell-attached phage recovered by elution, FIGS. 7, 10
Procedure: (§1) All analyses were performed in triplicate.

[2] = tested on: F98 glioma cells; assay: Evaluation of binding selectivity: phage output/input titer on F98 glioma; format: cell-based, rat; details: eluted phage
Procedure: as §1

[3] = tested on: RG2 glioma cells; assay: Evaluation of binding selectivity: phage output/input titer, RG2 glioma versus control cell lines overall; format: cell-based, rat
Procedure: as §1

[4] = tested on: human glioma cell lines SW1088, M059K, A172, and HS 683; assay: Phage clone binding to human glioma cell lines; format: cell-based; details: A172, HS 683
Procedure: The ELRGDSLP phage clone was tested further for binding to four different human glioma cell lines: SW1088, M059K, A172, and HS 683, all obtained from the ATCC.

[5] = tested on: αv, β3, and β1 integrins; assay: Affinity precipitation of RG2 cell membrane proteins with cross-linked phage, Western blot with anti-integrin antibodies; format: binding, rat
Procedure: Experiments were performed to isolate and purify the RG2-cell-specific protein that was responsible for binding of the ELRGDSLP phage clone to glioma cells. The basic approach was to perform precipitation of RG2 cell membrane proteins by using the phage clone to form an affinity matrix.
To prepare the RG2 cell membrane proteins, RG2 glioma cells were grown in 25 cm^2 tissue culture flasks. The growing medium was removed from the flasks and cells were collected in PBS buffer containing protease inhibitors. Cells were then pelleted by centrifugation and lysed with octylglucoside buffer (10 mM Tris-HCl, pH 7.5, 140 mM NaCl, 10 mM octylglucoside (Sigma), and protease inhibitor cocktail (Sigma); 5 ml per flask). The cell lysate was clarified by centrifugation and the supernatant containing cell membrane proteins was then used for isolation of glioma-specific receptor proteins.
Cross-linked phage were prepared by the method of Smith et al. (1998) (J. Immunol. Methods 215: 151–161) using a water-soluble, multifunctional dextran polymer. After that, ELRGDSLP cross-linked phage were incubated with the clarified lysate of RG2 cells. Following incubation, the crosslinked phage-receptor protein complexes were pelleted by centrifugation at 10,000 rpm for 15 minutes. Phage particles that were not cross-linked remained in the buffer and were discarded. […]

[6] = tested on: RG2 glioma cells; assay: Quantitation of binding specificity: phage output/input titer on RG2 glioma cells; format: cell-based, rat; details: cell-surface-bound phage eluted with low pH buffer; 10^9 cfu/flask, 1 hour, room temperature; FIG. 3
Procedure: as §1

[7] = tested on: BRL 3A hepatocytes, H9c2(2-1) cardiac myoblasts, 27FR fibroblasts; details: cell-attached phage recovered by elution; FIGS. 4, 7, 10
Procedure: In order to evaluate the binding specificity conferred by the peptides, various phage clones were incubated with RG2 glioma cells. Two control phage were compared to the RG2 affinity-selected candidate phage clones (see FIG. 3). […] For the quantitation assay, RG2 cells were grown in 25 cm^2 flasks for approximately 48 hours to sub-confluence. One hour prior to application of phage, the normal media was replaced with serum-free media and incubation was continued. Each phage clone (10^9 cfu/flask) was added to a flask of cells in 2 ml of washing/blocking buffer and incubated for 1 hour at room temperature. Following incubation, unbound phage were removed by washing the cells remaining in the flasks 8 times with 4 ml of cold washing/blocking buffer for 5 minutes per wash. Cell surface-bound phage were recovered by incubation with 1 ml of elution buffer for 10 minutes on ice. The eluate was removed from flasks and neutralized with 1 M Tris. Cells were washed again two times with washing/blocking buffer and lysed by incubation with 1 ml lysis buffer for 30 min at room temperature; the lysate was processed as above. Phage titers were determined by infection of bacteria and are presented in FIG. 3 as a ratio of output to input phage. All analyses were performed in triplicate. […]

For “DLTKSTAP [phage clone displaying the synthetic peptide on major coat protein pVIII]”, the “binding selectivity, RG2 glioma versus normal astrocytes” value [1] was “approximately 14 fold”.

With “DSTKSGNM [phage clone displaying the synthetic peptide on major coat protein pVIII]” the “binding to F98 glioma compared to RG2 glioma (in words)” value ([2]; FIG. 7) was “even better binding” and the “binding selectivity, RG2 glioma versus normal astrocytes” value [1] was 25 fold.

“DYDMTKNT [phage clone displaying the synthetic peptide on major coat protein pVIII]” was tested, and the “binding selectivity for glioma cells compared to control cells (in words)” value ([3]; RG2 and F98 glioma, astrocytes, myoblasts, hepatocytes, fibroblasts) was “very selective binding”.

With “ELRGDSLP [phage clone displaying the synthetic peptide on major coat protein pVIII]” the “binding to human glioma cell lines (in words)” value [4] was “pronounced glioma-specific binding properties”, the “signal with anti-integrin antibodies in phage-purified protein eluate” value [5] was “did not produce any positive signal” and the “output/input phage ratio compared between ELRGDSLP and ESRGDSYA phage clones” value ([3]; lysis, FIGS. 5 and 11) was “significantly lower”.

For “VDLPQHGQ [phage clone displaying the synthetic peptide on major coat protein pVIII]”, the “ratio of output to input phage (apparent binding affinity) on RG2 glioma cells” value [6] was “highest”.

In the case of “VGLPEHTQ [phage clone displaying the synthetic peptide on major coat protein pVIII]”, the “ratio of output to input phage (apparent binding affinity) on RG2 glioma cells” value [6] is reported as “highest”, the “binding selectivity, RG2 glioma versus hepatocytes, myoblasts and fibroblasts” value [7] is reported as “approximately 5 fold” and the “binding to F98 glioma as % of RG2-binding level” value ([2]; FIG. 4) is reported as 41%. The “binding to normal astrocytes as % of RG2-binding level” value ([1]; eluted phage, FIG. 4) was 64%.
